Assay results reported in ChEMBL document CHEMBL5614457, “New Directions in Antibacterial, Anticancer, and Gene Editing Therapies” (ACS Med Chem Lett, 2024).

The compounds below were run against Protein cereblon/B-cell lymphoma 6 protein (Homo sapiens) (UniProt Q96SW2+P41182) (assay: PROTAC activity at CRBN/N-terminal-HibiT tagged BCL6 in human HT-1080 cells transfected with pLV-UBC-N-HiBiT- BCL6-PGK-puro assessed as degradation of protein by measuring ratio of trough concentration of protein in cell compared to the concentration of protein before the cell contact with compound (Ymin) incubated for 5 hrs by luminescence based NANO-Glo HIBiT lytic detection assay).

`Cn1nc(C2CCC(=O)NC2=O)c2cccc(N3CCC(CN4CCN(c5ncc(Cl)c(Nc6ccc7c(c6)c6c(c(=O)n7C)OCC(F)(F)[C@H](C7CC7)N6)n5)CC4)CC3)c21` (some centres not stated) and `Cn1nc(C2CCC(=O)NC2=O)c2cccc(N3CCN(CC4CCN(c5ncc(Cl)c(Nc6ccc7c(c6)c6c(c(=O)n7C)OCC(F)(F)[C@H](C7CC7)N6)n5)CC4)CC3)c21` (some centres not stated) cannot be ordered by Activity: less than 30% for the first, less than 30% for the second.

`Cn1nc(C2CCC(=O)NC2=O)c2cccc(N3CCC(CN4CCN(c5cc(Nc6ccc7c(c6)c6c(c(=O)n7C)OCC(F)(F)[C@H](C7CC7)N6)c(Cl)cn5)CC4)CC3)c21` (some centres not stated) and `Cn1nc(C2CCC(=O)NC2=O)c2ccc(N3CCC(CN4CCN(c5cc(Nc6ccc7c(c6)c6c(c(=O)n7C)OCC(F)(F)[C@H](C7CC7)N6)c(Cl)cn5)CC4)CC3)cc21` (some centres not stated) cannot be ordered by Activity: less than 30% for the first, less than 30% for the second.

`Cn1nc(C2CCC(=O)NC2=O)c2cccc(N3CCC(CN4CCN(c5ncc(F)c(Nc6ccc7c(c6)c6c(c(=O)n7C)OCC(F)(F)[C@H](C7CC7)N6)n5)CC4)CC3)c21` (some centres not stated) and `Cn1nc(C2CCC(=O)NC2=O)c2cccc(N3CCC(CN4CCN(c5ncc(Br)c(Nc6ccc7c(c6)c6c(c(=O)n7C)OCC(F)(F)[C@H](C7CC7)N6)n5)CC4)CC3)c21` (some centres not stated) cannot be ordered by Activity: less than 30% for the first, less than 30% for the second.

Going from `Cn1nc(C2CCC(=O)NC2=O)c2ccc(N3CCC(CN4CCN(c5ncc(F)c(Nc6ccc7c(c6)c6c(c(=O)n7C)OCC(F)(F)[C@H](C7CC7)N6)n5)CC4)CC3)cc21` (some centres not stated) to `Cn1nc(C2CCC(=O)NC2=O)c2cccc(C3CCN(CC4CCN(c5ncc(F)c(Nc6ccc7c(c6)c6c(c(=O)n7C)OCC(F)(F)[C@H](C7CC7)N6)n5)CC4)CC3)c21` (some centres not stated), the Activity falls from 30% to less than 30%.

`C[C@@H](C1CCN(c2cccc3c(C4CCC(=O)NC4=O)nn(C)c23)CC1)N1CCN(c2ncc(Cl)c(Nc3ccc4c(c3)c3c(c(=O)n4C)OCC(F)(F)[C@H](C4CC4)N3)n2)CC1` (some centres not stated) and `Cn1nc(C2CCC(=O)NC2=O)c2cccc(N3CCC(OC4CCN(c5ncc(Cl)c(Nc6ccc7c(c6)c6c(c(=O)n7C)OCC(F)(F)[C@H](C7CC7)N6)n5)CC4)CC3)c21` (some centres not stated) cannot be ordered by Activity: less than 30% for the first, less than 30% for the second.

`Cn1nc(C2CCC(=O)NC2=O)c2cccc(C3CCN(CC4CCN(c5ncc(Cl)c(Nc6ccc7c(c6)c6c(c(=O)n7C)OCC(F)(F)[C@H](C7CC7)N6)n5)CC4)CC3)c21` (some centres not stated) and `Cn1c(=O)c2c(c3cc(Nc4nc(N5CCN(CC6CCN(c7cccc8c7C(=O)N(C7CCC(=O)NC7=O)C8=O)CC6)CC5)ncc4Cl)ccc31)N[C@@H](C1CC1)C(F)(F)CO2` (some centres not stated) cannot be ordered by Activity: less than 30% for the first, less than 30% for the second.
